pEC50: −log10 of the molar value.
Experiments:
[1] = Liver microsomes stability, human; type: in vitro ADME; conditions: human liver microsomes; for half-life at 2 μM / microsomal CLint at 2 μM: 2 μM compound, 0.5 mg/mL microsomes; for CLint scaled at 2 μM: read-out: Scaled-up CLint
Description: (§1) The objective of this study was to estimate in vitro metabolic stability of exemplary compounds of Formula (I) or a pharmaceutically acceptable salt, solvate, and/or prodrug thereof in pooled human, male rat, and male mouse liver microsomes. The concentrations of compounds in reaction systems were evaluated by LC-MS/MS for estimating the stability in pooled human, male rat, and male mouse liver microsomes. The in vitro intrinsic clearances of test compounds were determined as well.
(§2) A master solution in the “Incubation Plate” containing phosphate buffer, ultra-pure H2O, MgCl2 solution and liver microsomes was made according to Table 33. The mixture was pre-warmed at 37° C. water bath for 5 minutes.
(§3) 40 μL of 10 mM nicotinamide adenine dinucleotide phosphate (NADPH) solution was added to each well. The final concentration of NADPH was 1 mM. The negative control samples were prepared by replacing NADPH with 40 μL of ultra-pure H2O. Samples were prepared in duplicate. Negative controls were prepared in singlet.
(§4) The reaction was started with the addition of 4 μL of 200 μM exemplary test compounds of the disclosure or control compounds to each master solution to get the final concentration of 2 μM. This study was performed in duplicate.
(§5) Aliquots of 50 μL were taken from the reaction solution at 0, 15, 30, 45, and 60 minutes. The reaction solutions were stopped by the addition of 4 volumes of cold methanol with IS (100 nM alprazolam, 200 nM imipramine, 200 nM labetalol, and 2 μM ketoprofen). Samples were centrifuged at 3,220 g for 40 minutes. Aliquot of 90 μL of the supernatant was mixed with 90 μL of ultra-pure H2O and then was used for LC-MS/MS analysis.
(§6) LC/MS analysis was performed for all samples from this study using a Shimadzu liquid chromatograph separation system equipped with degasser DGU-20A5R; solvent delivery unit LC-30AD; system controller SIL-30AC; column oven CTO-30A; CTC Analytics HTC PAL System. Mass spectrometric analysis was performed using a Triple Quad™ 5500 instrument.
(§7) All calculations were carried out using Microsoft Excel. Peak area ratios of test compound to internal standard (listed in the below table) were determined from extracted ion chromatograms.
(§8) All calculations were carried out using Microsoft Excel. Peak areas were determined from extracted ion chromatograms. The slope value, k, was determined by linear regression of the natural logarithm of the remaining percentage of the parent drug vs. incubation time curve.
(§9) The in vitro half-life (in vitro t1/2) was determined from the slope value:
(§10) Conversion of the in vitro t1/2 (min) into the in vitro intrinsic clearance (in vitro CLint, in μL/min/mg proteins) was done using the following equation (mean of duplicate determinations): […]
as §1, with “solvate” for “solvate,”, “rat” for “rat,”
(§11) A master solution in the “Incubation Plate” containing phosphate buffer, ultra-pure H2O, MgCl2 solution and liver microsomes was made according to Table 67. The mixture was pre-warmed at 37° C. water bath for 5 minutes.
(§12) 40 μL of 10 mM NADPH solution was added to each well. The final concentration of NADPH was 1 mM. The negative control samples were prepared by replacing NADPH with 40 μL of ultra-pure H2O. Samples were prepared in duplicate. Negative controls were prepared in singlet
Aliquots of 50 μL were taken from the reaction solution at 0, 15, 30, 45 and 60 minutes. The reaction solutions were stopped by the addition of 4 volumes of cold methanol with IS (100 nM alprazolam, 200 nM imipramine, 200 nM labetalol and 2 μM ketoprofen).

[2] = Liver microsomes stability, rat; type: in vitro ADME; conditions: rat liver microsomes; for half-life at 2 μM / microsomal CLint at 2 μM / CLint scaled at 2 μM: male; for half-life at 2 μM / microsomal CLint at 2 μM: 2 μM compound, 0.5 mg/mL microsomes; for CLint scaled at 2 μM: read-out: Scaled-up CLint
Description: as §1, §2, §3, §4, §5, §6, §7, §8, §9, §10
as §1, with “solvate” for “solvate,”, “rat” for “rat,”
as §11, §12
Aliquots of 50 μL were taken from the reaction solution at 0, 15, 30, 45 and 60 minutes. The reaction solutions were stopped by the addition of 4 volumes of cold methanol with IS (100 nM alprazolam, 200 nM imipramine, 200 nM labetalol and 2 μM ketoprofen). […]

[3] = Plasma protein binding by equilibrium dialysis, dog; type: in vitro ADME; conditions: dog plasma, 6 hours
Description: The final concentration of compound was 1 μM. The final concentration of DMSO was 0.5%. Ketoconazole was used as positive control in the assay.
The assay was performed in duplicate.
All calculations were carried out using Microsoft Excel. […] The percentages of bound compound were calculated as follows: […]
Ketoconazole was used as positive control in the assay.

human 5-HT2B receptor = human 5-HT2B receptor (Homo sapiens, UniProt P41595); experiment: Human 5-HT2B positive allosteric modulator (PAM) assay; type: cell-based; design: expressed in transfected cells; host or cells: HEK293; conditions: HEK293 cells; for Emax (% of serotonin): PAM mode, agonist at EC20, relative to maximum response of serotonin; for pEC50: PAM mode: pre-incubation with sample, then agonist at EC20, read-out: EC50
Sequence of human 5-HT2B receptor (P41595 whole entry): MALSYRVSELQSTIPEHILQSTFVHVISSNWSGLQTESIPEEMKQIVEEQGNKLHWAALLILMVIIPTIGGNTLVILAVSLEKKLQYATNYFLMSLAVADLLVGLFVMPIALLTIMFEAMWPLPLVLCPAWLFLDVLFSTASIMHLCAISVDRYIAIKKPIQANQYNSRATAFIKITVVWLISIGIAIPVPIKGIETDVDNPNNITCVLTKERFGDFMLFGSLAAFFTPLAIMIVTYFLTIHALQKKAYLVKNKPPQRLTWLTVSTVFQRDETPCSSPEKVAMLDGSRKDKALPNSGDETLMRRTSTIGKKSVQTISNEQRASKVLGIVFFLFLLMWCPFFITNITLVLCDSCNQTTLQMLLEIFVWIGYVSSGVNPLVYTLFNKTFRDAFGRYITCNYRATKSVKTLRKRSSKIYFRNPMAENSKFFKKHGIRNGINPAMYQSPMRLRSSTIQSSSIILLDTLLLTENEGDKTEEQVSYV
Description: Compound potency (EC50) and efficacy (Max response) against the human 5-HT2B receptor in stably transfected HEK293 cells were determined in a GPCR cell-based assay.
(§13) For Positive Allosteric Modulator determination, cells were pre-incubated with sample followed by EC20 addition. Intermediate dilution of sample stocks were performed to generate 5× samples in assay buffer. 5 μL of 5× samples were added to cells and incubated at 37° C. for 10 mins. 5 μL of agonist at 6×EC20 concentration was added and cells were incubated at 37° C. for 120 mins. Final assay vehicle concentration was 1%. The results are expressed as percent efficacy relative to the maximum response of the control ligand (serotonin) in Table 14.
Compound potency (EC50) and efficacy (Max response) against the human 5-HT2B receptor in stably transfected HEK293 cells was determined in a GPCR cell-based assay.
as §13, with “sample stocks was performed to” for “sample stocks were performed to”, “added and the cells were” for “added and cells were”, “120 mins. The final assay vehicle” for “120 mins. Final assay vehicle”, “in Table 64.” for “in Table 14.”

| Compound | Predicted hepatic CL [1] | half-life at 2 μM [1] | microsomal CLint at 2 μM [1] | Remaining Percentage ([1]; With Cofactors, 0 min) | Remaining Percentage ([1]; With Cofactors, 30 min) | Remaining Percentage ([1]; With Cofactors, 60 min) | Remaining Percentage ([1]; Without Cofactors, 0 min) | Remaining Percentage ([1]; Without Cofactors, 30 min) | Remaining Percentage ([1]; Without Cofactors, 60 min) | CLint scaled at 2 μM [1] | half-life at 2 μM [2] | microsomal CLint at 2 μM [2] | CLint scaled at 2 μM [2] | Predicted hepatic CL [2] | Remaining Percentage ([2]; With Cofactors, 0 min) | Remaining Percentage ([2]; With Cofactors, 30 min) | Remaining Percentage ([2]; With Cofactors, 60 min) | Remaining Percentage ([2]; Without Cofactors, 0 min) | Emax (% of serotonin) (human 5-HT2B receptor) | pEC50 (human 5-HT2B receptor) | also measured |
| --- | --- | --- | --- | --- | --- | --- | --- | --- | --- | --- | --- | --- | --- | --- | --- | --- | --- | --- | --- | --- | --- |
| [2H]C([2H])(c1c[nH]c2ccc(OCCCCN3C(=O)c4ccccc4C3=O)cc12)[C@H]1CCCN1C([2H])([2H])[2H] [(R) I-244, (R)-2-(4-((3-((1-(Methyl-d3)pyrrolidin-2-yl)methyl-d2)-1H-indol-5-yl)oxy)butyl)isoindoline-1,3-dione] | 19.32 mL/min/kg | 5.98 min | 232 µL/min/mg | 100.00% | 3.10% | 0.00% | 100.00% | 94.44% | 88.07% | 290 mL/min/kg | 6.89 min | 201 µL/min/mg | 360 mL/min/kg | 47.87 mL/min/kg | 100.00% | 4.90% | 0.57% | 100.00% | 26.89 % of serotonin | 7.01 | Remaining Percentage ([2]; Without Cofactors, 30 min): 94.87%; Remaining Percentage ([2]; Without Cofactors, 60 min): 87.40%; recovery at 6 h, 1 µM ([3]; Beagle, dog, equilibrium dialysis, 37° C.): 94.6%; fraction unbound at 6 h, 1 μM ([3]; Beagle, equilibrium dialysis, 37° C., read-out: % Bound (converted)): 0.0281; % Remaining @ 6 hours [3]: 94.07% |
| [2H]C([2H])(c1c[nH]c2ccc(OCCCCCN3C(=O)c4ccccc4C3=O)cc12)[C@H]1CCCN1C([2H])([2H])[2H] [(R) I-245, (R)-2-(5-((3-((1-(Methyl-d3)pyrrolidin-2-yl)methyl-d2)-1H-indol-5-yl)oxy)pentyl)isoindoline-1,3-dione] | 18.11 mL/min/kg | 12 min | 115 µL/min/mg | 100.00% | 14.62% | 3.13% | 100.00% | 101.09% | 98.91% | 145 mL/min/kg | < 4.51 min | > 307 µL/min/mg | > 550 mL/min/kg | >50.17 mL/min/kg | 100.00% | 0.62% | 0.00% | 100.00% | 0 % of serotonin | < 5.48 | Remaining Percentage ([2]; Without Cofactors, 30 min): 95.83%; Remaining Percentage ([2]; Without Cofactors, 60 min): 94.10% |
| [2H]C([2H])(c1c[nH]c2ccc(OCCCCCN3C(=O)[C@H]4CCCC[C@H]4C3=O)cc12)[C@H]1CCCN1C([2H])([2H])[2H] [Cis (R) I-248, 2-(5-((3-(((R)-1-(Methyl-d3)pyrrolidin-2-yl)methyl-d2)-1H-indol-5-yl)oxy)pentyl)hexahydro-1H-isoindole-1,3(2H)-dione] | – | – | – | – | – | – | – | – | – | – | – | – | – | – | – | – | – | – | 7.97 % of serotonin | < 5.00 | – |

— patent US12606543B2, “Indole derivatives as serotonergic agents useful for the treatment of disorders related thereto” (priority 2023, dated 2026)
